Laboratory results taken from the supplement of paper PMC11061612.

Tests used:
Carboplatin = compound: C1CC(C1)(C(=O)[O-])C(=O)[O-].N.N.[Pt+2] [Carboplatin]; conditions: max 10 µM
Outline: (§1)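 Cancer cell lines were plated in 1536-well plates in 7.5 μl of DMEM/F12 or RPMI with 10% FBS and kept 24 hours at 37°C and 5% CO2 before 72 hours of dosing, with final DMSO typically 0.2%. CellTiter-Glo 2.0 luminescence measured viability, scaled between blank-well and DMSO-well means. Dose responses were fitted to a two-parameter logistic curve with a non-linear mixed effects model. This fit gives the single-agent IC50.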

AZD5363 = compound: C1CN(CCC1(C(=O)N[C@@H](CCO)C2=CC=C(C=C2)Cl)N)C3=NC=NC4=C3C=CN4 [AZD5363]; conditions: max 10 µM
Outline: as §1

AZD1775 = compound: C=CCn1c(=O)c2cnc(Nc3ccc(N4CCN(C)CC4)cc3)nc2n1-c1cccc(C(C)(C)O)n1 [AZD1775]; conditions: max 3 µM
Outline: as §1

Trametinib = compound: CC(=O)Nc1cccc(-n2c(=O)n(C3CC3)c(=O)c3c(Nc4ccc(I)cc4F)n(C)c(=O)c(C)c32)c1 [Trametinib]; conditions: max 1 µM
Outline: as §1

Paclitaxel = compound: CC(=O)O[C@H]1C(=O)[C@@]2(C)[C@H]([C@H](OC(=O)c3ccccc3)[C@]3(O)C[C@H](OC(=O)[C@H](O)[C@@H](NC(=O)c4ccccc4)c4ccccc4)C(C)=C1C3(C)C)[C@]1(OC(C)=O)CO[C@@H]1C[C@@H]2O [Paclitaxel]; conditions: max 3 µM
Outline: as §1

Palbociclib = compound: CC(=O)c1c(C)c2cnc(Nc3ccc(N4CCNCC4)cn3)nc2n(C2CCCC2)c1=O [Palbociclib]; conditions: max 10 µM
Outline: as §1

AZD1390 = compound: CC(C)n1c(=O)n(C)c2cnc3cc(F)c(-c4ccc(OCCCN5CCCCC5)nc4)cc3c21 [AZD1390]; conditions: max 0.3 µM
Outline: as §1

Venetoclax = compound: CC1(C)CCC(CN2CCN(c3ccc(C(=O)NS(=O)(=O)c4ccc(NCC5CCOCC5)c([N+](=O)[O-])c4)c(Oc4cnc5[nH]ccc5c4)c3)CC2)=C(c2ccc(Cl)cc2)C1 [Venetoclax]; conditions: max 1 µM
Outline: as §1

Dasatinib = compound: CC1=C(C(=CC=C1)Cl)NC(=O)C2=CN=C(S2)NC3=CC(=NC(=N3)C)N4CCN(CC4)CCO [Dasatinib]; conditions: max 2 µM
Outline: as §1

SG3199 = compound: CC1=CN2[C@@H](C1)C=NC3=CC(=C(C=C3C2=O)OC)OCCCCCOC4=C(C=C5C(=C4)N=C[C@@H]6CC(=CN6C5=O)C)OC [SG3199]; conditions: max 0.001 µM
Outline: as §1

AZD2811 = compound: CCN(CCO)CCCOc1ccc2c(Nc3cc(CC(=O)Nc4cccc(F)c4)[nH]n3)ncnc2c1 [AZD2811]; conditions: max 1 µM
Outline: as §1

SN-38 = compound: CCc1c2c(nc3ccc(O)cc13)-c1cc3c(c(=O)n1C2)COC(=O)[C@]3(O)CC [SN-38]; conditions: max 0.3 µM
Outline: as §1

AZD0156 = compound: CN(C)CCCOc1ccc(-c2ccc3ncc4c(c3c2)n(C2CCOCC2)c(=O)n4C)cn1 [AZD0156]; conditions: max 3 µM
Outline: as §1

AZD4320 = compound: CN(CC[C@H](CSC1=CC=CC=C1)NC2=C(C=C(C=C2)S(=O)(=O)NC(=O)C3=CC=C(C=C3)N4CCC(CC4)[C@H](C5=CC=CC=C5C6=CC=C(C=C6)Cl)O)S(=O)(=O)C(F)(F)F)CCO [AZD4320]; conditions: max 1 µM
Outline: as §1

Alisertib = compound: COc1cc(Nc2ncc3c(n2)-c2ccc(Cl)cc2C(c2c(F)cccc2OC)=NC3)ccc1C(=O)O [Alisertib]; conditions: max 10 µM
Outline: as §1

Etoposide = compound: COc1cc([C@@H]2c3cc4c(cc3[C@@H](O[C@@H]3O[C@@H]5CO[C@@H](C)O[C@H]5[C@H](O)[C@H]3O)[C@H]3COC(=O)[C@H]23)OCO4)cc(OC)c1O [Etoposide]; conditions: max 10 µM
Outline: as §1

Gefitinib = compound: COc1cc2ncnc(Nc3ccc(F)c(Cl)c3)c2cc1OCCCN1CCOCC1 [Gefitinib]; conditions: max 10 µM
Outline: as §1

Prexasertib = compound: COc1cccc(OCCCN)c1-c1cc(Nc2cnc(C#N)cn2)n[nH]1 [Prexasertib]; conditions: max 1 µM
Outline: as §1

Doxorubicin = compound: COc1cccc2c1C(=O)c1c(O)c3c(c(O)c1C2=O)C[C@@](O)(C(=O)CO)C[C@@H]3O[C@H]1C[C@H](N)[C@H](O)[C@H](C)O1 [Doxorubicin]; conditions: max 1 µM
Outline: as §1

AZD5153 = compound: COc1nnc2ccc(N3CCC(c4ccc(OCCN5CCN(C)C(=O)[C@H]5C)cc4)CC3)nn12 [AZD5153]; conditions: max 1 µM
Outline: as §1

Lapatinib = compound: CS(=O)(=O)CCNCc1ccc(-c2ccc3ncnc(Nc4ccc(OCc5cccc(F)c5)c(Cl)c4)c3c2)o1 [Lapatinib]; conditions: max 10 µM
Outline: as §1

AZD8186 = compound: C[C@@H](Nc1cc(F)cc(F)c1)c1cc(C(=O)N(C)C)cc2c(=O)cc(N3CCOCC3)oc12 [AZD8186]; conditions: max 10 µM
Outline: as §1

Crizotinib = compound: C[C@@H](Oc1cc(-c2cnn(C3CCNCC3)c2)cnc1N)c1c(Cl)ccc(F)c1Cl [Crizotinib]; conditions: max 10 µM
Outline: as §1

Savolitinib = compound: C[C@@H](c1ccc2nccn2c1)n1nnc2ncc(-c3cnn(C)c3)nc21 [Savolitinib]; conditions: max 1 µM
Outline: as §1

AZD6738 = compound: C[C@@H]1COCCN1C2=NC(=NC(=C2)C3(CC3)[S@](=N)(=O)C)C4=C5C=CNC5=NC=C4 [AZD6738]; conditions: max 10 µM
Outline: as §1

AZD5991 = compound: Cc1c2c(nn1C)CSCc1cc(n(C)n1)CSc1cc(c3ccccc3c1)OCCCc1c(C(=O)O)n(C)c3c-2c(Cl)ccc13 [AZD5991]; conditions: max 1 µM
Outline: as §1

AZD7648 = compound: Cc1cc2ncnn2cc1Nc1ncc2c(n1)n(C1CCOCC1)c(=O)n2C [AZD7648]; conditions: max 10 µM
Outline: as §1

Taselisib = compound: Cc1nc(-c2cn3c(n2)-c2ccc(-c4cnn(C(C)(C)C(N)=O)c4)cc2OCC3)n(C(C)C)n1 [Taselisib]; conditions: max 10 µM
Outline: as §1

Selumetinib = compound: Cn1cnc2c(F)c(Nc3ccc(Br)cc3Cl)c(C(=O)NOCCO)cc21 [Selumetinib]; conditions: max 10 µM
Outline: as §1

SRA737 = compound: N#Cc1cnc(Nc2cc(NC[C@H]3CNCCO3)c(C(F)(F)F)cn2)cn1 [SRA737]; conditions: max 10 µM
Outline: as §1

MK-2206 = compound: NC1(c2ccc(-c3nc4ccn5c(=O)[nH]nc5c4cc3-c3ccccc3)cc2)CCC1 [MK-2206]; conditions: max 10 µM
Outline: as §1

Gemcitabine = compound: Nc1ccn([C@@H]2O[C@H](CO)[C@@H](O)C2(F)F)c(=O)n1 [Gemcitabine]; conditions: max 0.3 µM
Outline: as §1

[1] = compound: O=C(Nc1ccc2[nH]nc(-c3ccncc3)c2c1)[C@@H]1CCN(CC(=O)N2CCN(c3ccc(-c4ncccn4)cc3)CC2)C1; conditions: max 5 µM
Outline: as §1

Olaparib = compound: O=C(c1cc(Cc2n[nH]c(=O)c3ccccc23)ccc1F)N1CCN(C(=O)C2CC2)CC1 [Olaparib]; conditions: max 10 µM
Outline: as §1

5-Fluorouracil = compound: O=c1[nH]cc(F)c(=O)[nH]1 [5-Fluorouracil]; conditions: max 20 µM
Outline: as §1

UACC-62 (Melanoma)
IC50, cell viability 72 h (Carboplatin): > 10000 nM | IC50, cell viability 72 h (AZD5363): > 10000 nM | IC50, cell viability 72 h (AZD1775): > 3000 nM | IC50, cell viability 72 h (Trametinib): 4.06 nM | IC50, cell viability 72 h (Paclitaxel): 598 nM | IC50, cell viability 72 h (Palbociclib): > 10000 nM | IC50, cell viability 72 h (AZD1390): > 300 nM | IC50, cell viability 72 h (Venetoclax): > 1000 nM | IC50, cell viability 72 h (Dasatinib): > 2000 nM | IC50, cell viability 72 h (SG3199): > 1 nM | IC50, cell viability 72 h (AZD2811): > 1000 nM | IC50, cell viability 72 h (SN-38): 15.6 nM | IC50, cell viability 72 h (AZD0156): > 3000 nM | IC50, cell viability 72 h (AZD4320): > 1000 nM | IC50, cell viability 72 h (Alisertib): > 10000 nM | IC50, cell viability 72 h (Etoposide): > 10000 nM | IC50, cell viability 72 h (Gefitinib): > 10000 nM | IC50, cell viability 72 h (Prexasertib): 136 nM | IC50, cell viability 72 h (Doxorubicin): 373 nM | IC50, cell viability 72 h (AZD5153): > 1000 nM | IC50, cell viability 72 h (Lapatinib): > 10000 nM | IC50, cell viability 72 h (AZD8186): 3990 nM | IC50, cell viability 72 h (Crizotinib): > 10000 nM | IC50, cell viability 72 h (Savolitinib): > 1000 nM | IC50, cell viability 72 h (AZD6738): > 10000 nM | IC50, cell viability 72 h (AZD5991): 282 nM | IC50, cell viability 72 h (AZD7648): > 10000 nM | IC50, cell viability 72 h (Taselisib): 4610 nM | IC50, cell viability 72 h (Selumetinib): 284 nM | IC50, cell viability 72 h (SRA737): > 10000 nM | IC50, cell viability 72 h (MK-2206): > 10000 nM | IC50, cell viability 72 h (Gemcitabine): > 300 nM | IC50, cell viability 72 h [1]: 84.6 nM | IC50, cell viability 72 h (Olaparib): > 10000 nM | IC50, cell viability 72 h (5-Fluorouracil): > 20000 nM
